Values of other authors, collected in patent publication US20190209502A1, “COMBINATION GEL FOR SEXUALLY TRANSMITTED INFECTIONS” (EVOFEM, INC., priority 2016, published 2019).

System: HIV
Conditions: compared with D or racemic lactic acid

For `C[C@H](O)C(=O)O` [L form of lactic acid, L-(+)-lactic acid], the “potency in inactivating HIV” value is given as “more potent in inactivating HIV than D or racemic lactic acid”.
